Laboratory results reported in PubChem BioAssay AID248 (DTP/NCI, 2004).
Several values for one entry are separate records, joined by “and”; a condition that tells them apart may be missing. Identical values can stand only once. Inconclusive results and toxic doses are left out. No stated cut-off is given here; in the data, active means T/C of 150% or more; inactive means T/C below 125%.

System: L1210 leukemia ip in BDF1 mice, survival T/C
Test: NCI In Vivo Anticancer Drug Screen. Data for tumor model L1210 Leukemia (intraperitoneal) in B6D2F1 (BDF1) mice
Settings: endpoint: mean survival time, higher = longer survival
Outline: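 In this screen, tumor-bearing mice given compound are compared to those given vehicle, and their survival values are reported as a treated-to-control quotient.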

[1] = dose: 100.0 mg/kg/injection, schedule: Q04DX003 (ip), vehicle: saline
[2] = dose: 200.0 mg/kg/injection, schedule: Q04DX003 (ip), vehicle: saline
[3] = dose: 100.0 mg/kg/injection, schedule: Q01DX001 (ip), vehicle: other
[4] = dose: 200.0 mg/kg/injection, schedule: Q01DX001 (ip), vehicle: other
[5] = dose: 400.0 mg/kg/injection, schedule: Q01DX001 (ip), vehicle: other
[6] = dose: 100.0 mg/kg/injection, schedule: Q04DX003 (ip), vehicle: saline with Tween-80
[7] = dose: 200.0 mg/kg/injection, schedule: Q04DX003 (ip), vehicle: saline with Tween-80
[8] = dose: 400.0 mg/kg/injection, schedule: Q04DX003 (ip), vehicle: saline with Tween-80
[9] = dose: 100.0 mg/kg/injection, schedule: Q01DX009 (ip), vehicle: Klucel (hydroxypropylcellulose) (HPC)
[10] = dose: 200.0 mg/kg/injection, schedule: Q01DX009 (ip), vehicle: Klucel (hydroxypropylcellulose) (HPC)
[11] = dose: 400.0 mg/kg/injection, schedule: Q01DX009 (ip), vehicle: Klucel (hydroxypropylcellulose) (HPC)
[12] = dose: 100.0 mg/kg/injection, schedule: Q01DX001 (ip), vehicle: saline
[13] = dose: 200.0 mg/kg/injection, schedule: Q01DX001 (ip), vehicle: saline
[14] = dose: 50.0 mg/kg/injection, schedule: Q01DX009 (ip), vehicle: saline with Tween-80
[15] = dose: 100.0 mg/kg/injection, schedule: Q01DX009 (ip), vehicle: saline with Tween-80
[16] = dose: 200.0 mg/kg/injection, schedule: Q01DX009 (ip), vehicle: saline with Tween-80
[17] = dose: 75.0 mg/kg/injection, schedule: Q01DX001 (ip), vehicle: carboxymethylcellulose (CMC)
[18] = dose: 150.0 mg/kg/injection, schedule: Q01DX001 (ip), vehicle: carboxymethylcellulose (CMC)
[19] = dose: 100.0 mg/kg/injection, schedule: Q01DX001 (ip), vehicle: carboxymethylcellulose (CMC)
[20] = dose: 200.0 mg/kg/injection, schedule: Q01DX001 (ip), vehicle: carboxymethylcellulose (CMC)
[21] = dose: 400.0 mg/kg/injection, schedule: Q01DX001 (ip), vehicle: carboxymethylcellulose (CMC)
[22] = dose: 100.0 mg/kg/injection, schedule: Q01DX001 (ip), vehicle: saline with Tween-80
[23] = dose: 200.0 mg/kg/injection, schedule: Q01DX001 (ip), vehicle: saline with Tween-80
[24] = dose: 400.0 mg/kg/injection, schedule: Q01DX001 (ip), vehicle: saline with Tween-80
[25] = dose: 50.0 mg/kg/injection, schedule: Q01DX009 (ip), vehicle: Klucel (hydroxypropylcellulose) (HPC)
[26] = dose: 100.0 mg/kg/injection, schedule: Q04DX003 (ip), vehicle: Klucel (hydroxypropylcellulose) (HPC)
[27] = dose: 200.0 mg/kg/injection, schedule: Q04DX003 (ip), vehicle: Klucel (hydroxypropylcellulose) (HPC)
[28] = dose: 400.0 mg/kg/injection, schedule: Q04DX003 (ip), vehicle: Klucel (hydroxypropylcellulose) (HPC)
[29] = dose: 100.0 mg/kg/injection, schedule: Q04DX002 (ip), vehicle: saline with Tween-80
[30] = dose: 200.0 mg/kg/injection, schedule: Q04DX002 (ip), vehicle: saline with Tween-80
[31] = dose: 400.0 mg/kg/injection, schedule: Q04DX002 (ip), vehicle: saline with Tween-80

Measured: T/C

O=C([O-])C1CCCCC1[I+]c1ccccc1 (stereo not given)
inactive: [1] 100 % of control | [2] 98 % of control

c1ccc2sc(SSN3CCSCC3)nc2c1
inactive: dose: 75.0 mg/kg/injection, schedule: Q04DX003 (ip), vehicle: Klucel (hydroxypropylcellulose) (HPC) 102 % of control | [3] 98 % of control | dose: 150.0 mg/kg/injection, schedule: Q04DX003 (ip), vehicle: Klucel (hydroxypropylcellulose) (HPC) 100 % of control | [4] 92 % of control | dose: 300.0 mg/kg/injection, schedule: Q04DX003 (ip), vehicle: Klucel (hydroxypropylcellulose) (HPC) 89 % of control | [5] 97 % of control

Clc1ccc2c(NCCN3CCCCCC3)nc(C(Cl)(Cl)Cl)nc2c1
inactive: dose: 75.0 mg/kg/injection, schedule: Q01DX001 (ip), vehicle: other 103 % of control | dose: 150.0 mg/kg/injection, schedule: Q01DX001 (ip), vehicle: other 97 % of control

CN(C)C1=CC(=N/S(=O)(=O)c2ccccc2)/C(N(C)C)=CC/1=N/S(=O)(=O)c1ccccc1
inactive: [6] 88 % of control | [7] 90 % of control | [8] 87 % of control

CC(=O)Oc1c(Br)c(-c2c(C)cc(C)c(Br)c2C)c(OC(C)=O)c(Br)c1-c1c(C)cc(C)c(Br)c1C
inactive: [9] 97 % of control | [1] 113 % of control | [10] 96 % of control | [2] 95 % of control | [11] 97 % of control | dose: 400.0 mg/kg/injection, schedule: Q04DX003 (ip), vehicle: saline 101 % of control

O=C(Nc1ccc(S(=O)(=O)Nc2ccc(N=Nc3ccccc3)cc2)cc1)C(SC1=NC=NC2=NC=NC21)(SC1=NC=NC2=NC=NC21)SC1=NC=NC2=NC=NC21 (stereo not given)
inactive: dose: 75.0 mg/kg/injection, schedule: Q04DX003 (ip), vehicle: saline 104 % of control | dose: 150.0 mg/kg/injection, schedule: Q04DX003 (ip), vehicle: saline 109 % of control | dose: 300.0 mg/kg/injection, schedule: Q04DX003 (ip), vehicle: saline 100 % of control

CC(=O)NNc1nc(C)cs1
inactive: [6] 97 % of control

NC(=O)c1ncn(C2CC(CO)C(O)C2O)c1N (stereo not given)
inactive: [12] 100 % of control | [13] 110 % of control | dose: 400.0 mg/kg/injection, schedule: Q01DX001 (ip), vehicle: saline 104 % of control

Oc1ccccc1SSc1ccccc1O
inactive: [14] 100 % of control | [15] 104 % of control | [16] 103 % of control

Cc1ccc(S(=O)(=O)Nc2cc(Cl)c(I)c(Cl)c2)cc1
inactive: [9] 96 % of control | [10] 102 % of control | [11] 100 % of control

O=C(N/N=C/c1ccc(Cl)cc1)C(c1ccccc1)N1CCCCC1 (stereo not given)
inactive: [3] 96 % of control | [4] 87 % of control | [5] 93 % of control

CN=C(N)NCCCCCCCCNC(N)=NC
inactive: dose: 5.0 mg/kg/injection, schedule: Q01DX001 (ip), vehicle: saline 95 % of control | dose: 10.0 mg/kg/injection, schedule: Q01DX001 (ip), vehicle: saline 101 % of control | dose: 20.0 mg/kg/injection, schedule: Q01DX001 (ip), vehicle: saline 101 % of control

CCCCCCCCNCCOC(=O)c1ccc(N(CC)CC)cc1
inactive: [17] 91 % of control | [18] 97 % of control

O=C1O/C(=C\c2ccccc2)c2c(Br)c(Br)c(Br)c(Br)c21
inactive: [19] 94 % of control | [20] 91 % of control | [21] 96 % of control

O=C(O)C1C[n+]2ccccc2O1 (stereo not given)
inactive: dose: 50.0 mg/kg/injection, schedule: Q01DX009 (ip), vehicle: saline 116 % of control | [1] 97 % of control | [2] 103 % of control

CC(C)(C)C(=O)CC(=O)C(C)(C)C.CC(C)(C)C(=O)CC(=O)C(C)(C)C.CC(C)(C)C(=O)CC(=O)C(C)(C)C.[Pr]
inactive: [22] 100 % of control | [15] 98 % of control | [23] 97 % of control | [16] 88 % of control | [24] 89 % of control

COCC(=O)Nc1ccc(Cl)c(Cl)c1
inactive: [19] 100 % of control | [20] 92 % of control | [21] 97 % of control

Cc1ccc(C)c(NC(=O)Oc2ccc(Br)cc2Br)c1
inactive: dose: 25.0 mg/kg/injection, schedule: Q01DX009 (ip), vehicle: Klucel (hydroxypropylcellulose) (HPC) 92 % of control | [25] 94 % of control | [26] 94 % of control | [10] 93 % of control and 114 % of control | [27] 87 % of control | [28] 110 % of control

Cc1cccc(S(=O)(=O)CS(=O)(=O)c2cccc(C)c2)c1
inactive: [17] 102 % of control | [18] 96 % of control | dose: 300.0 mg/kg/injection, schedule: Q01DX001 (ip), vehicle: carboxymethylcellulose (CMC) 91 % of control

Cc1ccc2c(c1)C1(C)C=CC(=O)CC1O2 (stereo not given)
inactive: [29] 106 % of control | [30] 110 % of control | [31] 106 % of control

Brc1ccc(N2N=C(c3ccccc3)N(c3ccc(Br)cc3)N=C2c2ccccc2)cc1
inactive: [3] 90 % of control | dose: 100.0 mg/kg/injection, schedule: Q04DX003 (ip), vehicle: other 104 % of control | [4] 93 % of control | dose: 200.0 mg/kg/injection, schedule: Q04DX003 (ip), vehicle: other 89 % of control | [5] 95 % of control | dose: 400.0 mg/kg/injection, schedule: Q04DX003 (ip), vehicle: other 89 % of control

N#CC(C(=O)c1ccccc1)(C(=O)c1ccccc1)c1cccc2ccccc12
inactive: [25] 89 % of control | [9] 95 % of control | [26] 90 % of control | [10] 92 % of control | [27] 96 % of control | [28] 95 % of control

CC(c1ccccc1)N1C(=O)CSC1=S (stereo not given)
inactive: [14] 96 % of control and 101 % of control | [22] 100 % of control | [15] 99 % of control and 107 % of control | [29] 96 % of control and 98 % of control | [6] 104 % of control | [23] 100 % of control | [16] 96 % of control and 91 % of control | [30] 91 % of control | [7] 102 % of control | [24] 92 % of control | [31] 90 % of control | [8] 90 % of control

CCN(CC)CCCCCOC(=O)c1ccccc1
inactive: [25] 92 % of control | [26] 97 % of control | [10] 96 % of control | [27] 107 % of control

Cc1c(C)c(CN)c(C)c(C)c1CN
inactive: [9] 91 % of control | [26] 103 % of control | [10] 100 % of control | [27] 98 % of control

Nc1ncnc2oc(-c3ccccc3)c(-c3ccccc3)c12
inactive: dose: 50.0 mg/kg/injection, schedule: Q04DX002 (ip), vehicle: saline with Tween-80 91 % of control | [29] 88 % of control

CS(=O)(=O)CC(=O)c1ccccc1
inactive: dose: 37.5 mg/kg/injection, schedule: Q01DX009 (ip), vehicle: saline with Tween-80 87 % of control | dose: 75.0 mg/kg/injection, schedule: Q01DX009 (ip), vehicle: saline with Tween-80 90 % of control | [6] 95 % of control | dose: 150.0 mg/kg/injection, schedule: Q01DX009 (ip), vehicle: saline with Tween-80 87 % of control | [7] 96 % of control

O=C(O)CC(C(=O)O)/C(=C\c1ccccc1)c1ccccc1 (stereo not given)
inactive: dose: 100.0 mg/kg/injection, schedule: Q04DX002 (ip), vehicle: saline 94 % of control | dose: 200.0 mg/kg/injection, schedule: Q04DX002 (ip), vehicle: saline 113 % of control | dose: 400.0 mg/kg/injection, schedule: Q04DX002 (ip), vehicle: saline 110 % of control

CCC(O)C(c1ccccc1)(c1ccccc1)C(C)CN(C)C (stereo not given)
inactive: [12] 100 % of control | [13] 97 % of control
